Source: publication PMC3853718 (Journal of Translational Medicine, 2013)

System: subjects with advanced malignancies
Assay: Phase 1 dose escalation: toxicity, safety and tolerability (DLT, MAD, RP2D, AEs)
[1] = 7.11 mg/m^2 (n = 7), All grades

Method: Subjects continued on treatment until there was disease progression, unacceptable toxicity, or the subject withdrew consent. The trial employed an accelerated titration design [16] starting at a dose of 0.33 mg/m^2 (one-sixth of the highest nontoxic dose in dogs).
the dose was doubled in sequential subjects until a DLT was observed or a subject experienced grade 2 toxicity [16]. In the case of an observed grade 2 toxicity, a second subject was enrolled at the same dose level. If the second subject also experienced a grade 2 toxicity, 2 additional subjects were accrued at that dose level for a total of 4 subjects. […] Each subject was allocated to only a single dose level of drug. Dose delay or modification was permitted based on laboratory and clinical assessment performed on the day of treatment.
Dose-limiting toxicities were determined during the first cycle for each dose level. A DLT was defined as any grade 3 or 4 hematologic toxicity lasting for at least 1 week, or as any grade 3 or 4 nonhematologic toxicity. […] Normal alkaline phosphatase level (< grade 1) at screening that rose to greater than or equal to grade 3; grade 1 or 2 alkaline phosphatase level at screening that rose to grade 4; grade 1 or 2 aspartate aminotransferase (AST) and/or alanine aminotransferase (ALT) levels at screening that doubled from baseline to become greater than or equal to grade 3; and any other abnormal nonhematology laboratory value greater than or equal to grade 3 that required medical intervention to treat, led to hospitalization, or persisted for at least 1 week were also considered DLTs.
Adverse events were graded based on the National Cancer Institute Common Terminology Criteria for Adverse Events (NCI CTCAE version 3.0) and were coded using the Medical Dictionary for Regulatory Activities (MedDRA version 13.0).

With CCc1cnn2c(NCc3ccc[n+]([O-])c3)cc(N3CCCC[C@H]3CCO)nc12 [dinaciclib] the “TEAE: Abdominal distension” value [1] was 1 (14) n (%), the “TEAE: Abdominal pain” value [1] was 3 (43) n (%) and the “TEAE: Anemia” value [1] was 3 (43) n (%). For the same compound, the “TEAE: Asthenia” value [1] was 2 (29) n (%), the “TEAE: Back pain” value [1] was 1 (14) n (%) and the “TEAE: Constipation” value [1] was 1 (14) n (%). The “TEAE: Cough” value [1] was 0 n (%), the “TEAE: Decreased appetite” value [1] was 2 (29) n (%) and the “TEAE: Dehydration” value [1] was 1 (14) n (%). The “TEAE: Diarrhea” value [1] was 1 (14) n (%), the “TEAE: Dizziness” value [1] was 3 (43) n (%) and the “TEAE: Dyspnea” value [1] was 3 (43) n (%). The “TEAE: Fatigue” value [1] was 3 (43) n (%), the “TEAE: Flatulence” value [1] was 2 (29) n (%) and the “TEAE: Hyperbilirubinemia” value [1] was 0 n (%). For the same compound, the “TEAE: Hyperglycemia” value [1] was 0 n (%), the “TEAE: Hyperuricemia” value [1] was 0 n (%) and the “TEAE: Hypokalemia” value [1] was 1 (14) n (%). The “TEAE: Hypophosphatemia” value [1] was 0 n (%), the “TEAE: Increased ALP” value [1] was 0 n (%) and the “TEAE: Increased ALT” value [1] was 0 n (%). The “TEAE: Increased AST” value [1] was 0 n (%), the “TEAE: Nausea” value [1] was 5 (71) n (%) and the “TEAE: Neutropenia” value [1] was 0 n (%). The “TEAE: Peripheral edema” value [1] was 1 (14) n (%), the “TEAE: Pyrexia” value [1] was 1 (14) n (%) and the “TEAE: Subjects with any AE” value [1] was 7 (100) n (%). For the same compound, the “TEAE: Urinary tract infection” value [1] was 2 (29) n (%), the “TEAE: Vomiting” value [1] was 2 (29) n (%) and the “TEAE: Weight decreased” value [1] was 1 (14) n (%). The “TEAE: Abdominal distension” value (7.11 mg/m^2 (n = 7), Grade 3–4) was 0 n (%), the “TEAE: Abdominal pain” value (7.11 mg/m^2 (n = 7), Grade 3–4) was 1 (14) n (%) and the “TEAE: Anemia” value (7.11 mg/m^2 (n = 7), Grade 3–4) was 2 (29) n (%). For the same compound, the “TEAE: Asthenia” value (7.11 mg/m^2 (n = 7), Grade 3–4) was 0 n (%), the “TEAE: Back pain” value (7.11 mg/m^2 (n = 7), Grade 3–4) was 0 n (%) and the “TEAE: Constipation” value (7.11 mg/m^2 (n = 7), Grade 3–4) was 0 n (%). The “TEAE: Cough” value (7.11 mg/m^2 (n = 7), Grade 3–4) was 0 n (%), the “TEAE: Decreased appetite” value (7.11 mg/m^2 (n = 7), Grade 3–4) was 0 n (%) and the “TEAE: Dehydration” value (7.11 mg/m^2 (n = 7), Grade 3–4) was 0 n (%). The “TEAE: Diarrhea” value (7.11 mg/m^2 (n = 7), Grade 3–4) was 0 n (%), the “TEAE: Dizziness” value (7.11 mg/m^2 (n = 7), Grade 3–4) was 0 n (%) and the “TEAE: Dyspnea” value (7.11 mg/m^2 (n = 7), Grade 3–4) was 1 (14) n (%). The “TEAE: Fatigue” value (7.11 mg/m^2 (n = 7), Grade 3–4) was 0 n (%), the “TEAE: Flatulence” value (7.11 mg/m^2 (n = 7), Grade 3–4) was 0 n (%) and the “TEAE: Hyperbilirubinemia” value (7.11 mg/m^2 (n = 7), Grade 3–4) was 0 n (%). For the same compound, the “TEAE: Hyperglycemia” value (7.11 mg/m^2 (n = 7), Grade 3–4) was 0 n (%), the “TEAE: Hyperuricemia” value (7.11 mg/m^2 (n = 7), Grade 3–4) was 0 n (%) and the “TEAE: Hypokalemia” value (7.11 mg/m^2 (n = 7), Grade 3–4) was 0 n (%). For the same compound, the “TEAE: Hypophosphatemia” value (7.11 mg/m^2 (n = 7), Grade 3–4) was 0 n (%), the “TEAE: Increased ALP” value (7.11 mg/m^2 (n = 7), Grade 3–4) was 0 n (%) and the “TEAE: Increased ALT” value (7.11 mg/m^2 (n = 7), Grade 3–4) was 0 n (%). For the same compound, the “TEAE: Increased AST” value (7.11 mg/m^2 (n = 7), Grade 3–4) was 0 n (%), the “TEAE: Nausea” value (7.11 mg/m^2 (n = 7), Grade 3–4) was 0 n (%) and the “TEAE: Neutropenia” value (7.11 mg/m^2 (n = 7), Grade 3–4) was 0 n (%). For the same compound, the “TEAE: Peripheral edema” value (7.11 mg/m^2 (n = 7), Grade 3–4) was 0 n (%), the “TEAE: Pyrexia” value (7.11 mg/m^2 (n = 7), Grade 3–4) was 0 n (%) and the “TEAE: Subjects with any AE” value (7.11 mg/m^2 (n = 7), Grade 3–4) was 4 (57) n (%). The “TEAE: Urinary tract infection” value (7.11 mg/m^2 (n = 7), Grade 3–4) was 0 n (%), the “TEAE: Vomiting” value (7.11 mg/m^2 (n = 7), Grade 3–4) was 1 (14) n (%) and the “TEAE: Weight decreased” value (7.11 mg/m^2 (n = 7), Grade 3–4) was 0 n (%). The “TEAE: Abdominal distension” value (10 mg/m^2 (n = 3), All grades) was 0 n (%), the “TEAE: Abdominal pain” value (10 mg/m^2 (n = 3), All grades) was 1 (33) n (%) and the “TEAE: Anemia” value (10 mg/m^2 (n = 3), All grades) was 0 n (%). The “TEAE: Asthenia” value (10 mg/m^2 (n = 3), All grades) was 0 n (%), the “TEAE: Back pain” value (10 mg/m^2 (n = 3), All grades) was 0 n (%) and the “TEAE: Constipation” value (10 mg/m^2 (n = 3), All grades) was 2 (67) n (%). For the same compound, the “TEAE: Cough” value (10 mg/m^2 (n = 3), All grades) was 0 n (%), the “TEAE: Decreased appetite” value (10 mg/m^2 (n = 3), All grades) was 0 n (%) and the “TEAE: Dehydration” value (10 mg/m^2 (n = 3), All grades) was 0 n (%). For the same compound, the “TEAE: Diarrhea” value (10 mg/m^2 (n = 3), All grades) was 1 (33) n (%), the “TEAE: Dizziness” value (10 mg/m^2 (n = 3), All grades) was 0 n (%) and the “TEAE: Dyspnea” value (10 mg/m^2 (n = 3), All grades) was 0 n (%). The “TEAE: Fatigue” value (10 mg/m^2 (n = 3), All grades) was 0 n (%), the “TEAE: Flatulence” value (10 mg/m^2 (n = 3), All grades) was 0 n (%) and the “TEAE: Hyperbilirubinemia” value (10 mg/m^2 (n = 3), All grades) was 0 n (%). For the same compound, the “TEAE: Hyperglycemia” value (10 mg/m^2 (n = 3), All grades) was 1 (33) n (%), the “TEAE: Hyperuricemia” value (10 mg/m^2 (n = 3), All grades) was 0 n (%) and the “TEAE: Hypokalemia” value (10 mg/m^2 (n = 3), All grades) was 1 (33) n (%). For the same compound, the “TEAE: Hypophosphatemia” value (10 mg/m^2 (n = 3), All grades) was 0 n (%), the “TEAE: Increased ALP” value (10 mg/m^2 (n = 3), All grades) was 0 n (%) and the “TEAE: Increased ALT” value (10 mg/m^2 (n = 3), All grades) was 0 n (%). The “TEAE: Increased AST” value (10 mg/m^2 (n = 3), All grades) was 0 n (%), the “TEAE: Nausea” value (10 mg/m^2 (n = 3), All grades) was 1 (33) n (%) and the “TEAE: Neutropenia” value (10 mg/m^2 (n = 3), All grades) was 1 (33) n (%). The “TEAE: Peripheral edema” value (10 mg/m^2 (n = 3), All grades) was 0 n (%), the “TEAE: Pyrexia” value (10 mg/m^2 (n = 3), All grades) was 0 n (%) and the “TEAE: Subjects with any AE” value (10 mg/m^2 (n = 3), All grades) was 3 (100) n (%). For the same compound, the “TEAE: Urinary tract infection” value (10 mg/m^2 (n = 3), All grades) was 1 (33) n (%), the “TEAE: Vomiting” value (10 mg/m^2 (n = 3), All grades) was 2 (67) n (%) and the “TEAE: Weight decreased” value (10 mg/m^2 (n = 3), All grades) was 0 n (%). The “TEAE: Abdominal distension” value (10 mg/m^2 (n = 3), Grade 3–4) was 0 n (%), the “TEAE: Abdominal pain” value (10 mg/m^2 (n = 3), Grade 3–4) was 0 n (%) and the “TEAE: Anemia” value (10 mg/m^2 (n = 3), Grade 3–4) was 0 n (%). For the same compound, the “TEAE: Asthenia” value (10 mg/m^2 (n = 3), Grade 3–4) was 0 n (%), the “TEAE: Back pain” value (10 mg/m^2 (n = 3), Grade 3–4) was 0 n (%) and the “TEAE: Constipation” value (10 mg/m^2 (n = 3), Grade 3–4) was 0 n (%). The “TEAE: Cough” value (10 mg/m^2 (n = 3), Grade 3–4) was 0 n (%), the “TEAE: Decreased appetite” value (10 mg/m^2 (n = 3), Grade 3–4) was 0 n (%) and the “TEAE: Dehydration” value (10 mg/m^2 (n = 3), Grade 3–4) was 0 n (%). The “TEAE: Diarrhea” value (10 mg/m^2 (n = 3), Grade 3–4) was 0 n (%), the “TEAE: Dizziness” value (10 mg/m^2 (n = 3), Grade 3–4) was 0 n (%) and the “TEAE: Dyspnea” value (10 mg/m^2 (n = 3), Grade 3–4) was 0 n (%). The “TEAE: Fatigue” value (10 mg/m^2 (n = 3), Grade 3–4) was 0 n (%), the “TEAE: Flatulence” value (10 mg/m^2 (n = 3), Grade 3–4) was 0 n (%) and the “TEAE: Hyperbilirubinemia” value (10 mg/m^2 (n = 3), Grade 3–4) was 0 n (%).
